Experimental data as given in US11576979B2, “Pyrrolobenzodiazepine prodrugs and antibody conjugates thereof” (GENENTECH, INC., priority 2016, dated 2023).
Where “and” joins values, the source holds several entries; their conditions need not be identical. Equal values may be shown once.

How the values were obtained:
A2058 = assay: CellTiter-Glo toxicity, 4 days (Example 9); assay type: cell-based; conditions: 4 days of drug incubation, Table 7A
Description: (§1) The toxicity of various PBD monomer disulfide prodrugs and PBD dimer disulfide prodrugs was evaluated on UACC-257, Igrov-1 and A2058 cell lines. Cells were seeded in 384-well plate and treated with drug 24 hours later. After 4 days of drug incubation, the cell viability was determined using Promega CellTiter-Glo luminescent reagent, which measures ATP level (an indirect measure of cell number). The luminescent intensity was measured on PerkinElmer Envision reader. The relative cell viability was calculated by normalizing to non-drug treatment control and was graphed using KleidaGraph software package. IC50 value was determined as the concentration to obtain 50% of the maximum cell killing.

Igrov-1 = assay: CellTiter-Glo toxicity, 4 days (Example 9); assay type: cell-based; conditions: 4 days of drug incubation, Table 7A
Description: as §1

UACC-257 = assay: CellTiter-Glo toxicity, 4 days (Example 9); assay type: cell-based; conditions: 4 days of drug incubation, Table 7A
Description: as §1

[1] = Disulfide cleavage by cysteine, LC/MS; assay type: physicochemical; conditions: 15 uM compound, 0.2 mM cysteine, pH 7.0, 37 C
Description: (§2) For disulfide cleavage determination, the compounds were incubated at 15 μM with 0.2 mM cysteine or 4 mM GSH in 100 mM Tris buffer pH 7.0 containing 5% methanol at 37° C. Aliquots were taken at specified time points and the samples were analyzed by LC/MS on Sciex TripleTOF 5600 on a Hypersil Gold C18 column (100×2.1, 1.9 Thermo Scientific). The column was eluted by a gradient of buffer A (0.1% formic acid in 10 mM ammonium acetate) to buffer B (0.1% formic acid in 10 mM ammonium acetate in 90% acetonitrile), 5% B 0-0.5 min, 5-25% B 0.5-8 min, 25-75% B 8-13 min, and 75-95% B 13-13.5 min, 95% B 13.5-14.5 min, 95-5% B 14.5-15 min at 0.4 mL/min. All products were separated and characterized by LC/MS/MS in a positive ESI ion mode. All analytes had the protonated molecular MH+ as the major species with little source fragmentation. Full scan accurate mass peak areas were used to estimate relative abundance of each component.

[2] = Disulfide cleavage by glutathione (GSH), LC/MS; assay type: physicochemical; conditions: 15 uM compound, 4 mM GSH, pH 7.0, 37 C
Description: as §2

KPL-4 = assay: CELLTITER GLO cell proliferation assay (Example 6); assay type: cell-based; conditions: KPL4, read-out: IC50 potency KPL-4, Table 4; data in parenthesis = repeat evaluations
Description: (§3) The toxicity of PBD monomer disulfide prodrugs and diaphorase prodrugs were evaluated against KPL-4, WSU-DLCL2, HCT-116, HCC1395 and Jurkat cell cultures. […] KPL-4 cells further have a high expression of DTD on the order of about 839 nRPKM (where nRPKM refers to normalized reads per Kb of transcript length per million mapped read).
(§4) Potency of the disulfide and DT-diaphorase prodrugs was measured by a cell proliferation assay employing the following protocol (CELLTITER GLO™ Luminescent Cell Viability Assay, Promega Corp.). First, an aliquot of 40 ul of cell culture containing about 8000 cells of WSU-DLCL2 cells (low NQO1 gene and GSH level), 4000 cells of KPL-4 (high NQO1 gene and GSH level), HCT-116 cells, HCC1395 cells or Jurkat cells in RPMI-1640 culture medium (supplemented with 10% fetal bovine serum, 2 mM glutamine, 50 uM cystine, and 0.015 g/L L-methionine) was deposited in each well of a 384-well flat clear bottom white polystyrene tissue culture-treated microplates (Corning, N.Y.). Second, control wells were prepared containing medium with and without cells. Third, compounds with and without disulfide or DT-diaphorase prodrugs (n=3) were added to the experimental wells using ECHO acoustic liquid handling technology (Labcyte Inc, Sunnyvale, Calif.) to create a 10-point dose-response curve in triplicate with 1:3× serial dilution. Fourth, cells were cultured in a humidified incubator set at 37° C. and maintaining an atmosphere of 5% CO2. Fifth, the plates were equilibrated to room temperature for approximately 30 minutes. Sixth, a volume of CELLTITER GLO™ Reagent equal to the volume of cell culture medium present in each well was added. Seventh, the contents were mixed for 10 minutes on an orbital shaker in the dark to induce cell lysis. Eighth, the plate was incubated at room temperature for 30 minutes to stabilize the luminescence signal. Ninth, luminescence was recorded and reported in graphs as % activity where RLU (relative luminescence units) was normalized to controls (no compound control minus no cell control). Tenth, data was plotted as individual points for each replicate (n=3) for each antibody as the mean of luminescence for each set of replicates, with standard deviation error bars.

WSU-DLCL2 = assay: CELLTITER GLO cell proliferation assay (Example 6); assay type: cell-based; conditions: Homo sapiens, WSUDLCL2, read-out: IC50 potency WSU-DLCL2, Table 4; data in parenthesis = repeat evaluations
Description: as §3, §4

| Structure (SMILES) | IC50 (A2058; Homo sapiens, A2058, 96 h) [nM] | IC50 (Igrov-1; Homo sapiens, IGROV-1, 96 h) [nM] | IC50 (UACC-257; Homo sapiens, UACC-257, 96 h) [nM] | % Remaining at 24 h by Cys [1] | % Remaining at 24 h by GSH [2] [%] | IC50 (A2058) [nM] | IC50 (Igrov-1) [nM] | IC50 (UACC-257) [nM] | IC50 (KPL-4) [µM] | IC50 (WSU-DLCL2) [µM] | % Remaining at 4 h by Cys ([1]; 4 h) [%] |
| --- | --- | --- | --- | --- | --- | --- | --- | --- | --- | --- | --- |
| C=C1C[C@H]2C(O)N(C(=O)OCC3(SSCC)CCOC3)c3cc(OC)c(OC)cc3C(=O)N2C1 (single isomer, unassigned) [PBD monomer disulfide prodrug 11] | 108 | 207 | 331 | 14.4% | 0 |  |  |  |  |  |  |
| C=C1C[C@H]2C(O)N(C(=O)OCC3(SSCC)CCOC3)c3cc(OC)c(OC)cc3C(=O)N2C1 (single isomer, unassigned) [PBD monomer disulfide prodrug 30] |  |  |  | 47.1% | 0 | 108 | 235 | 308 |  |  |  |
| C=C1C[C@H]2C(O)N(C(=O)OCc3ccccc3)c3cc(OC)c(OC)cc3C(=O)N2C1 (some centres unmarked) [PBD monomer control 2, reference compound] | > 20000 | > 20000 | > 20000 | 100% | 100 |  |  |  | > 10 | > 10 |  |
| C=C1C[C@H]2C(O)N(C(=O)OCC3(SSC(C)C)CC3)c3cc(OC)c(OC)cc3C(=O)N2C1 (some centres unmarked) [PBD monomer disulfide prodrug 7] | 11000 | > 30000 | > 30000 | 96.1% | 89.7 |  |  |  |  |  |  |
| C=C1C[C@H]2C(O)N(C(=O)OCC3(SSCCO)CCCC3)c3cc(OC)c(OC)cc3C(=O)N2C1 (some centres unmarked) [PBD monomer disulfide prodrug 8] | 47.2 | 172 | 194 | 86.7% | 0.5 |  |  |  |  |  |  |
| C=C1C[C@H]2C(O)N(C(=O)OCC3(SSCC(=O)O)CCC3)c3cc(OC)c(OC)cc3C(=O)N2C1 (some centres unmarked) [PBD monomer disulfide prodrug 9] | 292 | 1050 | 2110 | 81.1% | 1 |  |  |  |  |  |  |
| C=C1C[C@H]2C(O)N(C(=O)OCC(C)(C)SSC(C)C)c3cc(OC)c(OC)cc3C(=O)N2C1 (some centres unmarked) [PBD monomer disulfide prodrug 10] | 1830 | 4810 | 4730 | 99.4% | 88.5 |  |  |  |  |  |  |
| C=C1C[C@H]2C(O)N(C(=O)OC[C@@H](C)SSCC)c3cc(OC)c(OC)cc3C(=O)N2C1 (some centres unmarked) [PBD monomer disulfide prodrug 12] | 31.1 | 83.6 | 156 | 72.7% | 9.5 |  |  |  |  |  |  |
| C=C1C[C@H]2C(O)N(C(=O)OC[C@@H](C)SSC(C)(C)C)c3cc(OC)c(OC)cc3C(=O)N2C1 (some centres unmarked) [PBD monomer disulfide prodrug 13] | > 10000 | > 10000 | > 10000 | 99.9% | 98.8 |  |  |  |  |  |  |
| C=C1C[C@H]2C(O)N(C(=O)OCC(C)(C)SSCC)c3cc(OC)c(OC)cc3C(=O)N2C1 (some centres unmarked) [PBD monomer disulfide prodrug 14] |  |  |  | 68.1% | 3 |  |  |  |  |  |  |
| C=C1C[C@H]2C(O)N(C(=O)OC[C@@H](C)SSC(C)C)c3cc(OC)c(OC)cc3C(=O)N2C1 (some centres unmarked) [PBD monomer disulfide prodrug 15] | 304 | 928 | 1500 | 99.2% and 90.8% |  |  |  |  |  |  |  |
| C=C1C[C@H]2C(O)N(C(=O)OCCSSC(C)(C)C)c3cc(OC)c(OC)cc3C(=O)N2C1 (some centres unmarked) [PBD monomer disulfide prodrug 16] | 5590 | 18500 | 19500 | 98.6% | 73.2 |  |  |  |  |  |  |
| C=C1C[C@H]2C(O)N(C(=O)OCC3(SSCC)CC3)c3cc(OC)c(OC)cc3C(=O)N2C1 (some centres unmarked) [PBD monomer disulfide prodrug 17] |  |  |  | 34.9% | 0 |  |  |  |  |  |  |
| C=C1C[C@H]2C(O)N(C(=O)OCC3(SSCC)CCCCC3)c3cc(OC)c(OC)cc3C(=O)N2C1 (some centres unmarked) [PBD monomer disulfide prodrug 18] |  |  |  | 75.3% | 18.7 |  |  |  |  |  |  |
| C=C1C[C@H]2C(O)N(C(=O)OCc3ccc(SSC(C)C)cc3)c3cc(OC)c(OC)cc3C(=O)N2C1 (some centres unmarked) [PBD monomer disulfide prodrug 19] | 37.7 | 77.4 | 147 | 4.4% | 0 |  |  |  |  |  |  |
| C=C1C[C@H]2C(O)N(C(=O)OCC(CN(C)C)SSC(C)C)c3cc(OC)c(OC)cc3C(=O)N2C1 (some centres unmarked) [PBD monomer disulfide prodrug 20] |  |  |  | 0% | 0 |  |  |  |  |  | 34 |
| C=C1C[C@H]2C(O)N(C(=O)OCC(COC)SSC(C)C)c3cc(OC)c(OC)cc3C(=O)N2C1 (some centres unmarked) [PBD monomer disulfide prodrug 21] |  |  |  | 74.7% | 0 |  |  |  |  |  |  |
| C=C1C[C@H]2C(O)N(C(=O)OCC3(SSCCO)CCOC3)c3cc(OC)c(OC)cc3C(=O)N2C1 (some centres unmarked) [PBD monomer disulfide prodrug 22] | 23.7 | 39.8 | 80.6 | 1.4% | 0 |  |  |  |  |  |  |
| C=C1C[C@H]2C(O)N(C(=O)OC[C@@H](C)SSC3CCOCC3)c3cc(OC)c(OC)cc3C(=O)N2C1 (some centres unmarked) [PBD monomer disulfide prodrug 24] | 596 | 1480 | 2690 | 0.1% | 0 |  |  |  |  |  |  |
| C=C1C[C@H]2C(O)N(C(=O)OC[C@@H](C)SSC3COC3)c3cc(OC)c(OC)cc3C(=O)N2C1 (some centres unmarked) [PBD monomer disulfide prodrug 26] | 84.5 | 246 | 328 | 29.1% | 0 |  |  |  |  |  |  |
| C=C1C[C@H]2C(O)N(C(=O)OCCSSCCC(=O)O)c3cc(OC)c(OC)cc3C(=O)N2C1 (some centres unmarked) [PBD monomer disulfide prodrug 27] | 261 | 958 | 939 |  | 0 |  |  |  |  |  |  |
| C=C1C[C@H]2C(O)N(C(=O)OCCSSC3CCCC3)c3cc(OC)c(OC)cc3C(=O)N2C1 (some centres unmarked) [PBD monomer disulfide prodrug 28] | 920 | 2300 | 2100 | 62.2% | 0 |  |  |  |  |  |  |
| C=C1C[C@H]2C(O)N(C(=O)OCCSSCCO)c3cc(OC)c(OC)cc3C(=O)N2C1 (some centres unmarked) [PBD monomer disulfide prodrug 29] | 29.1 | 57.8 | 142 | 0% | 0 |  |  |  |  |  |  |
